Among the test systems are A549 NSCLC; DLD-1 colon; DMS 114 small cell lung; DMS 273 small cell lung; HOP-18 NSCLC; K-562 leukemia; KM20L2 colon; M19-MEL melanoma; MALME-3M melanoma; NCI-H460 lung; SF-295 CNS; SF-539 CNS; SNB-78 CNS; SW-620 colon; UO-31 renal; XF 498 CNS; P388/ADR leukemia; MDA-MB-231 breast; MDA-N.
Assay in all cases: NCI tumour cell line growth inhibition, 48 h

The structures appear in SMILES notation.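 Briefly, cells in 96-well plates were exposed to five compound concentrations for 48 h, and endpoints were estimated by linear interpolation. GI50 is the concentration that inhibits growth by half. The concentration for full growth arrest is given as TGI.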 Where only a bound is given, the exact number is not on record here.

For `CC1(C)O[C@@H](C[C@]2(C#N)C[C@H](CCl)OC(C)(C)O2)C[C@@H](C#N)O1`, the TGI in the assay on A549 NSCLC, in the assay with DLD-1 colon, in the assay on DMS 114 small cell lung, with DMS 273 small cell lung, in the assay with HOP-18 NSCLC and with K-562 leukemia was greater than 100 µM throughout. The TGI with KM20L2 colon, with M19-MEL melanoma, with MALME-3M melanoma, with NCI-H460 lung, in the assay on SF-295 CNS and in the assay with SF-539 CNS was greater than 100 µM each time. For the same compound, the TGI with SNB-78 CNS, with SW-620 colon, in the assay on UO-31 renal and with XF 498 CNS was greater than 100 µM throughout.
As to `C=C1C(C)C2C(Cc3ccccc3)NC(=O)C23OC(=O)/C=C\CC(=O)CCC(C)C/C=C/C3C1O` (stereo not drawn), the TGI in the assay on A549 NSCLC came out at 20.9 µM; with DLD-1 colon it was 3.36 µM; in the assay with DMS 114 small cell lung it was 6.61 µM; in the assay with DMS 273 small cell lung it was 14.1 µM; in the assay on HOP-18 NSCLC it was 1.94 µM; in the assay with K-562 leukemia, 5.79 µM. For the same compound, the TGI in the assay on KM20L2 colon turned out to be 15.8 µM; with M19-MEL melanoma, 12.5 µM; with MALME-3M melanoma it was 5.18 µM; with NCI-H460 lung, 21.7 µM; in the assay with P388/ADR leukemia it was 2.1 µM; in the assay on SF-295 CNS it was 13.9 µM. The TGI in the assay with SF-539 CNS amounted to 4.39 µM; with SNB-78 CNS, 2.08 µM; in the assay with SW-620 colon, 3.82 µM; with UO-31 renal it was 2.72 µM; in the assay with XF 498 CNS it was 1.07 µM. The GI50 in the assay with UO-31 renal is 0.913 µM.
Take `Nc1c(S(=O)(=O)O)cc(S(=O)(=O)O)c2ccc(N=Nc3ccc(/C=C/c4ccc(N=Nc5ccc6c(S(=O)(=O)O)cc(S(=O)(=O)O)c(N)c6c5O)cc4S(=O)(=O)O)c(S(=O)(=O)O)c3)c(O)c12`: the TGI with A549 NSCLC, in the assay with DLD-1 colon, with DMS 114 small cell lung, with DMS 273 small cell lung, in the assay on HOP-18 NSCLC and in the assay with K-562 leukemia was greater than 100 µM each time. Also, the TGI in the assay on KM20L2 colon, with M19-MEL melanoma, with MALME-3M melanoma, with NCI-H460 lung, with SF-295 CNS and with SF-539 CNS was greater than 100 µM in each case. Further, the TGI in the assay on SNB-78 CNS was greater than 100 µM; with SW-620 colon it was greater than 100 µM; in the assay on UO-31 renal, greater than 100 µM; in the assay on XF 498 CNS, greater than 92.9 µM.
`Cc1c2ccncc2c(C)c2c1[nH]c1ccc(OCCN(C)C)cc12`: the TGI in the assay on A549 NSCLC is 0.844 µM; in the assay with DLD-1 colon it was 0.718 µM; with DMS 273 small cell lung it was 0.321 µM; in the assay with HOP-18 NSCLC, 2.76 µM; in the assay on K-562 leukemia, 5.21 µM; with KM20L2 colon it was 1.18 µM. The TGI is 2.17 µM with M19-MEL melanoma; 2.96 µM in the assay with MALME-3M melanoma; 0.0921 µM in the assay with NCI-H460 lung; 0.128 µM in the assay on P388/ADR leukemia; 0.505 µM with SF-295 CNS; 2.38 µM in the assay with SF-539 CNS. Further, the TGI in the assay on SNB-78 CNS came to 3.2 µM; with SW-620 colon, 0.406 µM; in the assay with UO-31 renal, 1.75 µM; in the assay with XF 498 CNS, 2.19 µM.
In the case of `CN(C)CC1CCC(CN(C)C)C(=O)C1=O` (stereo not drawn), the TGI with A549 NSCLC amounted to 25.1 µM; with DLD-1 colon it was 7.25 µM; in the assay with DMS 114 small cell lung, 12.9 µM; with DMS 273 small cell lung, 31.2 µM; with HOP-18 NSCLC, 3.07 µM; with K-562 leukemia it was 6.15 µM. For the same compound, the TGI in the assay on KM20L2 colon was 30.8 µM; in the assay with M19-MEL melanoma it was 33.9 µM; with MALME-3M melanoma it was 3.6 µM; in the assay with MDA-MB-231 breast, 19.5 µM; with NCI-H460 lung, 36.4 µM; with SF-295 CNS it was 32.4 µM. The TGI with SF-539 CNS worked out at 12.6 µM; in the assay with SW-620 colon, 3.33 µM; in the assay on UO-31 renal, 11 µM; with XF 498 CNS, 4.95 µM.
`O=C1C2C=CC(n3[nH]c(=O)n(Cc4ccccc4)c3=O)CC2C(=O)N1c1ccc(Br)cc1` (stereo not drawn): the TGI in the assay on A549 NSCLC, with DLD-1 colon, with DMS 114 small cell lung, with DMS 273 small cell lung, with HOP-18 NSCLC and with K-562 leukemia was greater than 100 µM each time. The TGI in the assay with KM20L2 colon, in the assay on M19-MEL melanoma, in the assay on MALME-3M melanoma, in the assay with NCI-H460 lung, in the assay with SF-295 CNS and with SF-539 CNS was greater than 100 µM throughout. For the same compound, the TGI in the assay with SNB-78 CNS, with SW-620 colon and in the assay on UO-31 renal was greater than 100 µM each time.
Consider `Oc1ccc(Oc2cc3c(cc2Oc2ccc(O)cc2)-c2nc-3nc3[nH]c(nc4nc(nc5[nH]c(n2)c2cc(Oc6ccc(O)cc6)c(Oc6ccc(O)cc6)cc52)-c2cc(Oc5ccc(O)cc5)c(Oc5ccc(O)cc5)cc2-4)c2cc(Oc4ccc(O)cc4)c(Oc4ccc(O)cc4)cc32)cc1`, for which the TGI is greater than 100 µM in the assay on A549 NSCLC; greater than 100 µM in the assay on K-562 leukemia; 47 µM with MALME-3M melanoma; 52.4 µM in the assay with MDA-MB-231 breast; greater than 100 µM with MDA-N; greater than 100 µM in the assay on NCI-H460 lung. The TGI in the assay on SF-295 CNS is 95.6 µM; in the assay with SF-539 CNS, greater than 100 µM; in the assay on SW-620 colon, greater than 100 µM; in the assay on UO-31 renal, greater than 100 µM.
With `O=C(Nc1nn[nH]n1)c1nc(-c2ccccc2)cc(=O)[nH]1`, the TGI with A549 NSCLC, in the assay on DLD-1 colon, with DMS 114 small cell lung, in the assay on K-562 leukemia, in the assay with KM20L2 colon and in the assay with M19-MEL melanoma was greater than 100 µM each time. Moreover, the TGI in the assay with MALME-3M melanoma, with MDA-MB-231 breast, with MDA-N, with NCI-H460 lung, in the assay on SF-295 CNS and with SF-539 CNS was greater than 100 µM throughout. In addition, the TGI in the assay with SNB-78 CNS, in the assay with SW-620 colon, with UO-31 renal and with XF 498 CNS was greater than 100 µM each time.

Source of the values: PubChem BioAssay (NCI).
